From US11603377B2, “MTORC1 modulators and uses thereof” (Aeovian Pharmaceuticals, Inc., priority 2020, dated 2023) come the findings set out here.

Experiment [1] deals with FKBP51 / FRB ternary complex (Homo sapiens (Human), UniProt P42345+Q13451). Kind of experiment: SPR assay to characterize ternary complex formation with FKBP51 (FRB binding to rapalog-saturated FKBP51). To be noted: FRB dilutions with 100 nM rapalog on immobilized FKBP51. The essentials: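 SPR with biotinylated avi-FKBP51 on streptavidin chip (~200 RU); FRB (0.00011-20 μM, 3-fold series) injected with 100 nM rapalog, A-B-A mode keeping FKBP saturated with rapalog.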

The target of a further experiment is FKBP12 (Homo sapiens (Human), UniProt P62942). As to the kind of experiment: SPR assay to determine binding affinity to FKBP12 (direct binding). To be noted: immobilized biotinylated avi-FKBP12. A general note: In SPR one partner is held on a chip, and binding of the other changes the refractive index at the surface.
Sequence of FKBP12 (P62942 whole entry): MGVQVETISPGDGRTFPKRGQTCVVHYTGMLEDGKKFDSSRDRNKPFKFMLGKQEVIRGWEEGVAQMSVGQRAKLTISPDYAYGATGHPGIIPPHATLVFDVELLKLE
For a further experiment, the target named is FKBP51 (Homo sapiens (Human), UniProt Q13451). Kind of experiment: SPR assay to determine binding affinity to FKBP51 (direct binding). Particulars: immobilized biotinylated avi-FKBP51. The essentials:
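Biotinylated avi-FKBP51 captured on streptavidin chip to about 2000 RU. Compounds injected at 0.5-1000 nM (8 points, 3-fold) for 120 s contact and 3600 s dissociation in 50 mM HEPES pH 7.5, 150 mM NaCl, 2 mM MgCl2, 1 mM DTT, 0.05% Tween-20, 1% DMSO.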

For a further experiment, the target named is mTORC2 (Homo sapiens (Human), UniProt P42345+P62942). As to the kind of experiment: mTORC2 inhibition, AlphaLISA of Phospho-AKT (pAKT pS473) in PC3 cells. In kind it is cell-based. (In general: Alpha assays give light when donor and acceptor beads are brought close together.)
For experiment [2], the target named is FKBP12 / FRB ternary complex (Homo sapiens (Human), UniProt P42345+P62942). As to the kind of experiment: SPR assay to characterize ternary complex formation with FKBP12 (FRB binding to rapalog-saturated FKBP12). To be noted: FRB dilutions with 100 nM rapalog on immobilized FKBP12. The method, boiled down:
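Biotinylated avi-FKBP12 immobilized (~100 RU) on streptavidin chip; A-B-A injections kept FKBP12 saturated with 100 nM rapalog while FRB (0.00011–20 μM, 3-fold, 12 points) was injected 120 s.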

The target of another experiment is mTORC1 (Homo sapiens (Human), UniProt P42345+P62942). Kind of experiment: mTORC1 inhibition, AlphaLISA of Phospho-p70 S6 kinase (p70S6K pT389) in PC-3 cells. The format is cell-based. Particulars: inhibition of p70S6K pT389 levels.

Bounds are passed on as bounds.

Sequence of FKBP51 (Q13451 whole entry): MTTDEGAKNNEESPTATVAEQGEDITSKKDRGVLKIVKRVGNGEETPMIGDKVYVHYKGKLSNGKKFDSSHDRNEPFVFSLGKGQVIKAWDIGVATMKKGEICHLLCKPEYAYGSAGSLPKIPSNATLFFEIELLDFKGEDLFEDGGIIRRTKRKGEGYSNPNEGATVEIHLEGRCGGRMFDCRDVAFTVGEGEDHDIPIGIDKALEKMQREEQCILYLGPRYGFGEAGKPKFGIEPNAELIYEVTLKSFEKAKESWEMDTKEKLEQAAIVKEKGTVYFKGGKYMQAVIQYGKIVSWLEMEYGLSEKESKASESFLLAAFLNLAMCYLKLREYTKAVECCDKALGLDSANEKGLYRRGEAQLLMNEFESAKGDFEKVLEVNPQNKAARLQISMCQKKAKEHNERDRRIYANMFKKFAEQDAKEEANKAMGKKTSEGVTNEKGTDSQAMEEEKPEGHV

On to `COC1CC(CC(C)C2CC(=O)C(C)C=C(C)C(O)C(OC)C(=O)C(C)CC(C)C=CC=CC=C(C)C(OCC3CC(F)(F)C3)CC3CCC(C)C(O)(O3)C(=O)C(=O)N3CCCCC3C(=O)O2)CCC1O` (stereo not drawn) [Compound 41], for which the Kd – broadly, the free concentration of one partner at which half of the binding sites on the other are occupied at equilibrium, for simple one-to-one binding – in experiment [1] is more than 800 nM; at FKBP12, 0.3 to 1 nM; at FKBP51, more than 100 nM; in experiment [2], more than 800 nM. Further, the “mTORC2 % inhibition at 1 uM” value on mTORC2 was “A (A ≤20% inhibition at 1 micro Molar (uM))”. Also, the IC50 – broadly, the concentration that inhibits the measured activity by half – against mTORC1 is more than 0.8 nM.

For `COC1CC(CC(C)C2CC(=O)C(C)C=C(C)C(O)C(OC)C(=O)C(C)CC(C)C=CC=CC=C(C)C(OCC3CC3)CC3CCC(C)C(O)(O3)C(=O)C(=O)N3CCCCC3C(=O)O2)CCC1OCCCO` (stereo not drawn) [Compound 42], the Kd is more than 800 nM in experiment [1], more than 1 nM on FKBP12, more than 100 nM at FKBP51 and 300 to 800 nM in experiment [2]. Besides, the “mTORC2 % inhibition at 1 uM” value at mTORC2 was “A (A ≤20% inhibition at 1 micro Molar (uM))”. Further, the IC50 against mTORC1 was more than 0.8 nM.

As to `COC1CC(CC(C)C2CC(=O)C(C)C=C(C)C(O)C(OC)C(=O)C(C)CC(C)C=CC=CC=C(C)C(OCC3CC3)CC3CCC(C)C(O)(O3)C(=O)C(=O)N3CCCCC3C(=O)O2)CCC1OCCCO` (stereo not drawn) [Compound 43], the Kd is less than 300 nM in experiment [1], more than 1 nM on FKBP12, more than 100 nM on FKBP51 and less than 300 nM in experiment [2]. Further, at mTORC2, the “mTORC2 % inhibition at 1 uM” value is “C (C≥40% and less than 60% inhibition at 1 uM)”. The IC50 on mTORC1 is more than 0.8 nM.

Consider `COC1CC(CC(C)C2CC(=O)C(C)C=C(C)C(O)C(OC)C(=O)C(C)CC(C)C=CC=CC=C(C)C(OCC3CCC3)CC3CCC(C)C(O)(O3)C(=O)C(=O)N3CCCCC3C(=O)O2)CCC1OCCCO` (stereo not drawn) [Compound 44], for which the Kd in experiment [1] was more than 800 nM; at FKBP12 it was more than 1 nM; on FKBP51 it was more than 100 nM; in experiment [2] it was less than 300 nM. Besides, at mTORC2, the “mTORC2 % inhibition at 1 uM” value is “C (C≥40% and less than 60% inhibition at 1 uM)”. For the same compound, the IC50 against mTORC1 was 0.1 to 0.8 nM.

For `COC1CC(CC(C)C2CC(=O)C(C)C=C(C)C(O)C(OC)C(=O)C(C)CC(C)C=CC=CC=C(C)C(OCC3CCC3)CC3CCC(C)C(O)(O3)C(=O)C(=O)N3CCCCC3C(=O)O2)CCC1OCCO` (stereo not drawn) [Compound 45], the Kd in experiment [1] is less than 300 nM; on FKBP12, more than 1 nM; on FKBP51, more than 100 nM; in experiment [2], less than 300 nM. Moreover, the “mTORC2 % inhibition at 1 uM” value at mTORC2 was “B (B>20% and less than 40% inhibition at 1 uM)”. The compound further gave an IC50 against mTORC1 of more than 0.8 nM.

With `COC1CC(CC(C)C2CC(=O)C(C)C=C(C)C(O)C(OC)C(=O)C(C)CC(C)C=CC=CC=C(C)C(OC3CC3)CC3CCC(C)C(O)(O3)C(=O)C(=O)N3CCCCC3C(=O)O2)CCC1OCCO` (stereo not drawn) [Compound 46], the Kd in experiment [1] is 300 to 800 nM; on FKBP12, more than 1 nM; at FKBP51, more than 100 nM; in experiment [2], 300 to 800 nM. Also, the “mTORC2 % inhibition at 1 uM” value on mTORC2 was “B (B>20% and less than 40% inhibition at 1 uM)”. Also, at mTORC1, the IC50 was 0.1 to 0.8 nM.

In the case of `COC1CC(CC(C)C2CC(=O)C(C)C=C(C)C(O)C(OC)C(=O)C(C)CC(C)C=CC=CC=C(C)C(OC3CC3)CC3CCC(C)C(O)(O3)C(=O)C(=O)N3CCCCC3C(=O)O2)CCC1OCCO` (stereo not drawn) [Compound 47], the Kd in experiment [1] was more than 800 nM; on FKBP12 it was more than 1 nM; on FKBP51, more than 100 nM; in experiment [2], less than 300 nM. The “mTORC2 % inhibition at 1 uM” value at mTORC2 is “B (B>20% and less than 40% inhibition at 1 uM)”. This compound also showed an IC50 against mTORC1 of more than 0.8 nM.

Turning to `CCOC(=O)COC1CCC(CC(C)C2CC(=O)C(C)C=C(C)C(O)C(OC)C(=O)C(C)CC(C)C=CC=CC=C(C)C(OC3CC3)CC3CCC(C)C(O)(O3)C(=O)C(=O)N3CCCCC3C(=O)O2)CC1OC` (stereo not drawn) [Compound 48], the Kd is more than 800 nM in experiment [1], more than 1 nM at FKBP12, more than 100 nM on FKBP51 and 300 to 800 nM in experiment [2]. For the same compound, at mTORC2, the “mTORC2 % inhibition at 1 uM” value is recorded as “A (A ≤20% inhibition at 1 micro Molar (uM))”. This compound came in with an IC50 on mTORC1 of more than 0.8 nM.

Consider `CCOC(=O)COC1CCC(CC(C)C2CC(=O)C(C)C=C(C)C(O)C(OC)C(=O)C(C)CC(C)C=CC=CC=C(C)C(OCC3CCC3)CC3CCC(C)C(O)(O3)C(=O)C(=O)N3CCCCC3C(=O)O2)CC1OC` (stereo not drawn) [Compound 49], for which the Kd was more than 800 nM in experiment [1], less than 0.3 nM at FKBP12, more than 100 nM on FKBP51 and 300 to 800 nM in experiment [2]. Moreover, the “mTORC2 % inhibition at 1 uM” value at mTORC2 is “B (B>20% and less than 40% inhibition at 1 uM)”. The compound also had an IC50 at mTORC1 of more than 0.8 nM.

As for `CCOC(=O)COC1CCC(CC(C)C2CC(=O)C(C)C=C(C)C(O)C(OC)C(=O)C(C)CC(C)C=CC=CC=C(C)C(OCC3CC3)CC3CCC(C)C(O)(O3)C(=O)C(=O)N3CCCCC3C(=O)O2)CC1OC` (stereo not drawn) [Compound 50], the Kd is more than 800 nM in experiment [1], more than 1 nM on FKBP12, more than 100 nM at FKBP51 and 300 to 800 nM in experiment [2]. In addition, the “mTORC2 % inhibition at 1 uM” value at mTORC2 was “B (B>20% and less than 40% inhibition at 1 uM)”. The same compound had an IC50 on mTORC1 of more than 0.8 nM.

`CCOC(=O)COC1CCC(CC(C)C2CC(=O)C(C)C=C(C)C(O)C(OC)C(=O)C(C)CC(C)C=CC=CC=C(C)C(OCC3CC3)CC3CCC(C)C(O)(O3)C(=O)C(=O)N3CCCCC3C(=O)O2)CC1OC` (stereo not drawn) [Compound 51]: the Kd was more than 800 nM in experiment [1], more than 1 nM on FKBP12, more than 100 nM at FKBP51 and 300 to 800 nM in experiment [2]. The “mTORC2 % inhibition at 1 uM” value at mTORC2 is on record as “A (A ≤20% inhibition at 1 micro Molar (uM))”. This compound came in with an IC50 on mTORC1 of more than 0.8 nM.

`COC1CC(CC(C)C2CC(=O)C(C)C=C(C)C(O)C(OC)C(=O)C(C)CC(C)C=CC=CC=C(C)C(OC3CC3)CC3CCC(C)C(O)(O3)C(=O)C(=O)N3CCCCC3C(=O)O2)CCC1OCCCO` (stereo not drawn) [Compound 52]: the Kd in experiment [1] was more than 800 nM; at FKBP12, 0.3 to 1 nM; on FKBP51, more than 100 nM; in experiment [2], less than 300 nM. Also, the “mTORC2 % inhibition at 1 uM” value at mTORC2 is “B (B>20% and less than 40% inhibition at 1 uM)”. In addition, the IC50 at mTORC1 was 0.1 to 0.8 nM.

As for `COC1CC(CC(C)C2CC(=O)C(C)C=C(C)C(O)C(OC)C(=O)C(C)CC(C)C=CC=CC=C(C)C(OC3CC3)CC3CCC(C)C(O)(O3)C(=O)C(=O)N3CCCCC3C(=O)O2)CCC1OCCCO` (stereo not drawn) [Compound 53], the Kd in experiment [1] was more than 800 nM; on FKBP12, 0.3 to 1 nM; at FKBP51, more than 100 nM; in experiment [2] it was less than 300 nM. Moreover, the “mTORC2 % inhibition at 1 uM” value on mTORC2 is “C (C≥40% and less than 60% inhibition at 1 uM)”. Also, the IC50 against mTORC1 fell in the range of 0.1 to 0.8 nM.

Take `COC1CC(CC(C)C2CC(=O)C(C)C=C(C)C(O)C(OC)C(=O)C(C)CC(C)C=CC=CC=C(C)C(OCC3CC3)CC3CCC(C)C(O)(O3)C(=O)C(=O)N3CCCCC3C(=O)O2)CCC1OCCO` (stereo not drawn) [Compound 54]: the Kd in experiment [1] is more than 800 nM; at FKBP12 it was more than 1 nM; on FKBP51, more than 100 nM; in experiment [2], less than 300 nM. The “mTORC2 % inhibition at 1 uM” value at mTORC2 is “B (B>20% and less than 40% inhibition at 1 uM)”. Also, at mTORC1, the IC50 fell in the range of 0.1 to 0.8 nM.

Consider `CO[C@@H]1C[C@H](C[C@@H](C)[C@@H]2CC(=O)[C@H](C)/C=C(\C)[C@H](O)[C@@H](OC)C(=O)[C@H](C)C[C@H](C)/C=C/C=C/C=C(\C)[C@@H](OCCC3COC3)C[C@@H]3CC[C@@H](C)[C@@](O)(O3)C(=O)C(=O)N3CCCC[C@H]3C(=O)O2)CC[C@H]1O` [Compound 55], for which the dissociation constant Kd in experiment [1] was more than 800 nM; on FKBP12, less than 0.3 nM; on FKBP51, more than 100 nM; in experiment [2], 300 to 800 nM. The “mTORC2 % inhibition at 1 uM” value at mTORC2 was “B (B>20% and less than 40% inhibition at 1 uM)”. For the same compound, the IC50 against mTORC1 lay within 0.1 to 0.8 nM.
